Assay results: patent US7314866B2, “Ku-70-derived Bax-suppressing peptides and use thereof for the protection of damaged cells” (Bloodcenter of Wisconsin, Inc., priority 2002, dated 2008)
Where a SMILES comes first, the peptide text is derived from it. Where no end group is shown, it is not given here.

Key:
[1] = Membrane permeability and cellular retention of peptides; format: in vitro ADME
HEK293T cells = assay: Bax-induced apoptosis in HEK293T cells (pcDNA3-Bax transfection, Hoechst staining); format: cell-based, human; conditions: for Suppression of Bax-induced apoptosis: peptide delivered into the cells by liposome (BioPorter); for Suppression of Bax-induced apoptosis by co-transfected Ku70 mutant: 2.0 ug pCMV-2B construct co-transfected with pcDNA3-Bax
Protocol: FIG. 1 illustrates that new peptides designed from Ku70 show anti-Bax activity. FIG. 1A: scheme of Ku70 full-length (Ku70 wt), Ku701-577 (Ku70Δ578–609), or Ku70578-609 (Ku70Δ1–577). FIG. 1C: HEK293T cells were transfected with 1.0 ug of pCMV-2B-control vector (Control) or pcDNA3-Bax (Bax) together with 2.0 ug of pCMV-2B-Ku70 wt (Ku70 wt), pCMV-2B-Ku701-577 (Ku701-577), or pCMV-2B-Ku70578-609 (Ku70578-609). All the cells were also co-transfected with 0.5 ug pEGFP for the marking of transfected cells. Apoptosis in the transfected cells was analyzed 24 hours following transfection with Hoechst dye staining of the nucleus as described in Methods. FIG. 1D: HEK293T cells were incubated with 200 uM peptide composed of Ku70578-587 or Ku70596-600 for 4 hours using BioPorter reagent, and then transfected with 1.0 ug of pCDNA3-control vector (Control) or pcDNA3-Bax (Bax). The number of apoptotic cells was determined as described in FIG. 1C. FIG. 1E: HEK293T cells (10^6 cells) were incubated with 200 uM IPMIK (negative control peptide) or VPMLK (V5) and PMLKE (P5) peptides at the indicated concentrations for 1 hour and then incubated cells were transfected with 1.0 ug of pcDNA3-Bax. Also, unincubated cells were transfected with 1.0 ug of pcDNA3-Bax in the presence or absence of 200 uM z-VAD-fmk. The number of apoptotic cells was determined as described in FIG. 1C. FIG. 1F: Summary of the anti-Bax activity and sequence of all peptides used.
HEK293T and HeLa cells were cultured in MEM supplemented with 10% fetal bovine serum (FBS) and Du145 cells and mouse embryonic fibroblasts (MEFs) were in DMEM with 10% FBS. Transfection of the plasmids was performed by SuperFect (Qiagen) according to the manufacturer's manual. Apoptosis was induced by pcDNA3-human Bax (Bax-encoding plasmid)-transfection, Staurosporin (STS)-treatment and UVC-irradiation. The amount of the plasmids, the concentration of STS, and the energy of UVC-irradiation are described in the figure legends. Apoptosis in the transfected cells was analyzed as follows: A plasmid encoding enhanced green fluorescent protein (EGFP) (0.5 ug to 10^6 cells) was transfected to all the groups to mark the transfected cells. After the treatment, cells were stained with Hoechst dye and cells with apoptotic nuclei were counted in GFP-expressing cells under the fluorescent microscope as described by Matsuyama, et al., J. Biol. Chem. 273:30995–31001, 1998. Each point in the figures showing percentages of apoptosis represents the mean +/−SE of three experiments. Caspase activities of cells were measured by detecting the cleavage of fluorogenic substrate of Caspase (DEVD-afc) as previously described.
BioPorter-based peptide delivery was performed 4 hours before apoptosis induction.

[2] = target: T1, interaction of Ku70 and Bax (Homo sapiens, UniProt Q07812); assay: Co-immunoprecipitation of endogenous Ku70 and Bax in cell lysates with added peptide; format: binding; conditions: peptide added to cell lysates
T1 construct: endogenous in cells; HeLa and 293 cells for the V6 peptide
Protocol: FIGS. 6A–D: HEK293T cells (10^7 cells) lysed in CHAPS buffer were incubated with 200 uM negative control (NC) peptide or (A) VPMLK (V5, SEQ ID NO: 1), (B) PMLKE (P5, SEQ ID NO: 2), (C) PMLK (P4, SEQ ID NO: 3), and (D) MLKE (M4, SEQ ID NO: 6) at the indicated concentrations for 1 hour. Immunoprecipitation was performed with anti-Ku70 monoclonal antibody or anti-Bax polyclonal antibody using CHAPS buffer as described in Methods. Mouse IgG and pre-immune rabbit serum (NRS) were used as negative controls.
By testing several deletion mutants of the Ku70 protein, I have identified the Bax-binding domain in Ku70. The domain comprises 6 amino acids (VPMLKE, SEQ ID NO: 7). This peptide (Ku70 Peptide V6) inhibits the interaction of Ku70 and Bax at the concentration of 20–80 μM in lysates prepared from human cultured cells (HeLa cells and human kidney epithelial 293 cells).
Endogenous protein: HEK293T (10^7 cells) were lysed in 200 ul of “CHAPS-based buffer” (150 mM NaCl, 10 mM Hepes, pH 7.4, 1.0% CHAPS) containing protease inhibitors (100 times dilution of Protease Inhibitors Cocktail; Sigma) according to the previously reported method (Hsu and Youle, J. Biol. Chem. 273:10777–10783, 1998). […]

endogenous Bax = target: T2, endogenous Bax (Homo sapiens, UniProt Q07812); assay: Co-immunoprecipitation of Flag-tagged Ku70 mutants and endogenous Bax; format: binding; conditions: HEK293T cells
T2 construct: endogenous in cells; host or cells: HEK293T
Protocol: Endogenous protein: HEK293T (10^7 cells) were lysed in 200 ul of “CHAPS-based buffer” (150 mM NaCl, 10 mM Hepes, pH 7.4, 1.0% CHAPS) containing protease inhibitors (100 times dilution of Protease Inhibitors Cocktail; Sigma) according to the previously reported method (Hsu and Youle, J. Biol. Chem. 273:10777–10783, 1998). After precleaning of 600 ul of the sample with 50 ul of Protein G-Sepharose at 4° C. for 1 hour, immunoprecipitations were performed by incubating 200 ul of lysates with 20 ul of Protein G-Sepharose preabsorbed with 2 ug of anti-Bax polyclonal (BD-Pharmingen) or anti-Ku70 monoclonal antibody (BD-Pharmingen) at 4° C. for 2 hours. In some cases, 2 ug of anti-Bax monoclonal antibody (clone 6A7, BD Pharmingen) was used to detect active form of Bax. After extensive washing in the buffer, beads were boiled in 40 ul of Laemmli buffer and 20 ul of the eluted proteins were subjected to SDS-PAGE. Co-precipitation of biotin-labeled peptides and endogenous Bax using streptavidin beads: HEK293T cells (10^7 cells) lysed in 200 ul CHAPS-based buffer were incubated with biotin-labeled negative control (NC) peptide or VPMLK (V5; SEQ ID NO: 1) peptide for 1 hour. The concentrations of NC and V5 peptide labeled with biotin are described in the figure legends. […]

human Bax = target: T3, human Bax (human, UniProt Q07812 1-192); assay: fluorescence microscopy of HeLa cells and of Du145 cells with or without pcDNA3-Bax
T3 construct: Protein in cell lysates or cells, not purified; also called endogenous Bax; pcDNA3-Bax (human)
Protocol: HeLa cells and transfected or untransfected Du145 cells with pcDNA3-Bax were incubated with 200 uM FITC-labeled VPMLK (V5; SEQ ID NO: 1) peptide for 1 hour prior to microscopic analysis by fluorescent microscope. For immunostaining, cells incubated with FITC-V5 peptide for 1 hour were fixed with 4% paraformaldehyde in phosphate buffered saline (PBS). Cells were permeablized with 0.5% Triton X-100 and 0.05% Tween-20 in PBS. Fixed cells were incubated in PBS containing 5% BSA at 37 C, and stained with anti-Bax monoclonal antibody (BD-Pharmingen, dilution 1:50) followed by the detection of Texas-Red labeled anti-mouse IgG (Jackson ImmunoResearch, dilution 1:100).

[3] = target: T4, endogenous Bax in Ku70-deficient mouse embryonic fibroblasts (mouse, UniProt Q07813 1-192); assay: Scatchard analysis; FITC fluorescence before and after immunoprecipitation of Bax from Ku70-deficient MEF cytosol
T4 construct: also called endogenous Bax in Ku70-deficient MEFs
Protocol: The interaction of BIP and Bax was confirmed by experiments using the system of biotin-labeled BIP and streptavidin beads. Biotin-labeled BIP (biotin-VPMLK; SEQ ID NO: 1), but not negative control peptide (biotin-IPMIK; SEQ ID NO: 5) precipitated Bax from the cell lysates when the streptavidin beads were added to the samples.
Ku70-deficient MEFs (10^7 cells) were lysed in 200 ul of "detergent-free hypotonic buffer" (hypotonic (5 mM NaCl) phosphate buffered saline, pH 7.4) containing protease inhibitors (100 times dilution of Protease Inhibitors Cocktail; Sigma) according to the previously reported method (Hsu and Youle, supra, 1998). For Scatchard analysis, the cytosol fraction was used and NaCl was added to prepare the isotonic condition before immunoprecipitation as previously reported (Hsu and Youle, supra, 1998). […] FITC fluorescence of pre-immunoprecipitation ("B"+"F") and the supernatant following immunoprecipitation ("F") were measured by fluorescence microplate reader (Molecular Devices), and the values of "B+F" and "B" were calculated. Kd was calculated by Scatchard plot. […] No significant binding of FITC-V5 to the cellular components was detected in Bax-immunodepleted samples.

T1 sequence (Q07812 whole entry): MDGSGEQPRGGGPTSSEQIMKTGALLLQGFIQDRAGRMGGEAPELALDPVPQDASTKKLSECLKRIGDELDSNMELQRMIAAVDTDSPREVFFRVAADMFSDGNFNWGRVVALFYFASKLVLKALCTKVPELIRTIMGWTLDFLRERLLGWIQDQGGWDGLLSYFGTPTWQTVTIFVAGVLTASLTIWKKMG
T2 sequence (Q07812 whole entry): as above
T3 sequence (Q07812 whole entry): as above
T4 sequence (Q07813 whole entry): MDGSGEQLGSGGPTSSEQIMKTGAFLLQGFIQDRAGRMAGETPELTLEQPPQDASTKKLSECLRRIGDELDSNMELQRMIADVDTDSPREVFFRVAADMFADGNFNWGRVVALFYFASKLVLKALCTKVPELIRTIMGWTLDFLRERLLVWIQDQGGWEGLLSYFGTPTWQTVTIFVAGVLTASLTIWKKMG

## CSCC[C@H](NC(=O)[C@@H]1CCCN1C(=O)[C@@H](N)C(C)C)C(=O)N[C@@H](CC(C)C)C(=O)N[C@@H](CCCCN)C(=O)N[C@@H](CCC(=O)O)C(=O)O [VPMLKE] (H-VPMLKE-OH; N-terminus and C-terminus assumed)
[1]
  Membrane permeability: not membrane permeable

## CSCC[C@H](NC(=O)[C@@H]1CCCN1)C(=O)N[C@@H](CC(C)C)C(=O)N[C@@H](CCCCN)C(=O)O [PMLK] (H-PMLK-OH; N-terminus and C-terminus assumed)
[1]
  Retention of the peptide in the cell: not retained in the cell

## CSCC[C@H](NC(=O)[C@@H]1CCCN1C(=O)[C@@H](N)C(C)C)C(=O)N[C@@H](CC(C)C)C(=O)N[C@@H](CCCCN)C(=O)O [VPMLK] (H-VPMLK-OH; N-terminus and C-terminus assumed)
[1]
  Membrane permeability: membrane permeable
  Retention of the peptide in the cell: effectively retained inside the cells

## 578–587: synthetic peptide of Ku70 amino acids 578–587, 2nd α-helix from the C-terminus (VPMLKEACRA; UniProt P12956 578-587, looked up, fragment)
HEK293T cells
  Suppression of Bax-induced apoptosis: inhibited Bax-induced apoptosis

## Ku70 Peptide NC: immediate next six amino acid sequence of Ku70, negative control (LGKFTV) [reference compound]
[2]
  Effect on the interaction of Ku70 and Bax: did not affect the interaction of Ku70 and Bax

## CSCC[C@H](NC(=O)[C@@H]1CCCN1)C(=O)N[C@@H](CC(C)C)C(=O)N[C@@H](CCCCN)C(=O)N[C@@H](CCC(=O)O)C(=O)O [PMLKE] (H-PMLKE-OH; N-terminus and C-terminus assumed)
[1]
  Membrane permeability: membrane permeable
  Retention of the peptide in the cell: effectively retained inside the cells

## 596–600: synthetic peptide of Ku70 amino acids 596–600 (KQELL; UniProt P12956 596-600, looked up, fragment)
HEK293T cells
  Suppression of Bax-induced apoptosis: not

## MLKE [four amino acid deletion peptide]
[2]
  Effect on the interaction of Ku70 and Bax: did not interfere with Bax-Ku70 interaction

## Ku701-577: Ku70 mutant deleted of amino acids 578–609
HEK293T cells
  Suppression of Bax-induced apoptosis by co-transfected Ku70 mutant: not
Endogenous Bax
  Binding of Flag-tagged Ku70 mutant to endogenous Bax: did not

## Ku70578-609: Flag-tagged Ku70 mutant expressing the amino acids 578–609 of Ku70 (VPMLKEACRAYGLKSGLKKQELLEALTKHFQD; also: Flag-tagged)
HEK293T cells
  Suppression of Bax-induced apoptosis by co-transfected Ku70 mutant: suppressed Bax-induced apoptosis
Endogenous Bax
  Binding of Flag-tagged Ku70 mutant to endogenous Bax: binds endogenous Bax

B1: FITC-labeled BIP (VPMLK; SEQ ID NO: 1) (peptide)
peptide: VPMLK
modifications: also: FITC-labeled, position of label not given here
notes: also called FITC-BIP; FITC-V5
Human Bax
  binding result: binds
[3]
  Kd: 1.3 µM
